Like-named read-outs stand apart in the source and are kept apart here.
Legend:
[1] = target: T1, recombinant his tagged human SphK1 (Homo sapiens, UniProt Q9NYA1); test: SphK1 activity assay (32P-labelled S1P production); type: biochemical; details: 10 μM compound; % of activity compared to control (DMSO vehicle only)
T1 construct: His tag; made in house; host or cells: insect cells (baculovirus system)
Method: (§1) The SphK assays employed, measure SphK activity through the production of ^32P-labelled S1P following the addition of exogenous Sph and [γ^32P] ATP.
(§2) Activities of SphK1 and SphK2 were determined using identical assay conditions with the exception that SphK1 assays used 3 ng/assay recombinant his tagged human SphK1 (made in the lab in a baculovirus system using insect cells), while SphK2 assays used 30 ng/assay recombinant human SphK2 (purchased by Johnson and Johnson).
(§3) Compounds were dissolved in DMSO at 10 mM, the mixture was vortexed (and sonicated if necessary). Stock solutions were kept at 4° C. until used.
(§4) Aliquots were made containing 100 μM drug compound. These aliquots were then diluted in assay buffer: 100 mM tris/HCl pH 7.4, 100 mM NaCl, 1 mM sodium orthovanadate, 10 mM NaF to make up a 10 μM solution.
(§5) Recombinant enzyme was diluted in assay buffer (above) to make up a final concentration of 0.03 ng/μL (SphK1) or 0.33 ng/μL (SphK2).
(§6) 40 μL recombinant enzyme was added to an Eppendorf® Safe-Lock® microcentrifuge tube. This was followed by the addition of drug compound from prepared aliquots, before adding ATP, [γ^32P]ATP and Sph. Note: ATP stock is made up in 1M Tris pH 7.4 and 200 mM MgCl2. This allows ATP to complex with Mg and be available as a substrate.
(§7) The rest of the reaction mixture was then added to the enzyme sample (Table 1). All reactions were performed as triplicates.
(§8) Reaction mixture was prepared with sufficient volume to assay all of the required samples. To do this, each of the volumes shown was multiplied by n+1, where n is the number of samples to be assayed. Assay buffer used is made up of 100 mM tris/HCl pH 7.4, 100 mM NaCl, 1 mM sodium orthovanadate and 10 mM NaF.
(§9) The mixture was then incubated at 37° C. for 20 min (SphK1)/45 min (SphK2).
(§10) To the 100 μL assay mixture, add 270 μl of chloroform/methanol/conc. HCl (100:200:1).
(§11) 20 μL of 5 M KCl was then added to the assay mixture.
(§12) 70 μL of chloroform was added to create phase separation. The solution was vortexed to mix well.
(§13) The solution was then centrifuged for 5 min at 13,000×g to fully separate the phases.
(§14) The upper aqueous/methanol phase was separated by aspiration.
(§15) 50 μL of the remaining lower chloroform phase […] was applied onto the TLC plate by repeatedly spotting a few microliters of liquid (<5 mm diameter circle) between each sample spot with the pipette tip. The liquid was then allowed to absorb into the plate before drying with a stream of air.
(§16) The TLC plate was developed in a glass TLC developing tank with 1-butanol/ethanol/glacial acetic acid/H2O (8:2:1:2) until the mobile phase is within 1 cm of the top of the TLC plate.
(§17) The TLC plate was then exposed to a storage phosphor screen overnight. Storage phosphor screens work by capturing images produced by ionising radiation (e.g. ^32P). The phosphorimager stimulates the screen which uses lasers to convert the latent signal to light. Light is proportional to the amount of radioactivity in the sample. The image is then quantified using standard quantification software (ImageQuant™). Whatman paper with the assay mixture dilutions, was included to assist quantification of the phosphor signal.
(§18) Once the storage phosphor screen was read using the phosphorimager, S1P spots, which have an Rf of 0.7 with the mobile phase employed, were quantified.
(§19) The S1P spot intensity can be converted to the amount of phosphate transferred/min/mg protein.

[2] = test system: PC3 prostate cancer cell lines; test: Anticancer activity in PC3 cell line, CellTitre AQueous One cell viability assay; type: cell-based; details: concentration required to inhibit cell proliferation by 50%, 72 hours
Method: Measurement of Anticancer Activity in PC3 Cell Line Assays
PC3 prostate cancer cell lines were cultured in DMEM (containing 10% fetal calf serum and penicillin-streptomycin).
Before treatment with drug compounds, cells were plated at 2,500 cells/well in 96 well plates and incubated at 37° C. with 5% CO2 in a humidified incubator for 24 hours prior. Cells were only plated in columns 3-10 and rows C—F to ensure uniform humidity and warmth across all wells. The remaining wells were filled with 100 μL of phosphate buffered saline.
Drug stock solutions (50 or 10 mM) were diluted×1000 in media to a final concentration of either 50 μM or 10 μM with a DMSO vehicle concentration of 0.1%.
Cell culture supernatants were aspirated and replaced with drug containing media. Drug treatments were performed in duplicate wells, while potential plate layout-specific variation in cell growth was accounted for by addition of a vehicle control (0.1% DMSO).
Cells were then incubated with drug compounds at 37° C. with 5% CO2 in a humidified incubator for 72 hours prior to assay.
Media was diluted with CellTitre AQueous One Solution (Promega, Australia; Cat # G3580) according to manufacturer's instructions to produce a final concentration of 317 μg/mL.
Cell culture supernatants were then aspirated from wells and replaced with 100 μL of CellTitre solution. Triplicate cell-free control wells containing only CellTitre solution were also included in each assay.
Cells were then incubated at 37° C. with 5% CO2 in a humidified incubator for 1 hour at which time absorbance was read at 490 nm with an EnVision microplate reader (Perkin Elmer, Australia).
When analysing data, background absorbance (taken from cell-free control wells) was subtracted from each reading. […] For each drug concentration the mean (±SEM) is calculated and graphed using GraphPad Prism (version 5). A sigmoidal curved is fitted to the data and used to calculate the IC50 of each compound.

[3] = target: T2, Dihydroceramide Desaturase-1 (Des1) (Homo sapiens, UniProt O15121); test: Dihydroceramide desaturase-1 (Des1) activity by HPLC in intact Jurkat cells labeled with DhCer-C6-NBD; type: cell-based
T2 construct: These modifications included the use of parental Jurkat cells; endogenous in cells; host or cells: parental Jurkat cells
T2 sequence (O15121 1-323): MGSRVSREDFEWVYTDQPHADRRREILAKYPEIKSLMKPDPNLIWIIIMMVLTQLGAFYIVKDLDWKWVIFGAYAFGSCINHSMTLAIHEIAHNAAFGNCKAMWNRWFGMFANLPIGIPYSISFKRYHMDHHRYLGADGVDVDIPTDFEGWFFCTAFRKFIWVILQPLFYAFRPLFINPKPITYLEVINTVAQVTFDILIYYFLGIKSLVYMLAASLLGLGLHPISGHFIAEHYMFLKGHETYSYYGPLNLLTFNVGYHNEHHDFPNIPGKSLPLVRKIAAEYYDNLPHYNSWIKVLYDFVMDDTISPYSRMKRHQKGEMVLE
Method: Measurement of Dihydroceramide Desaturase-1 (Des1) Activity:
These modifications included the use of parental Jurkat cells, 0.5% serum in the culture media, and cell harvesting via centrifugation at 500×g to maximise ceramide extraction. Extracted samples (50 ul) were analysed on a Waters HPLC coupled to a fluorescence detector using a 30 cm C18 reverse-phase column eluted with 1 ml/min 20% H2O and 80% acetonitrile, both with a 0.1% of trifluoroacetic acid.

recombinant human SphK2 = target: T3, recombinant human SphK2 (Homo sapiens, UniProt Q9NRA0); test: SphK2 activity assay (32P-labelled S1P production); type: biochemical; details: 10 μM compound, % of activity compared to control (DMSO vehicle only); for remaining activity at 10 µM: read-out: SphK2% actvity at 10 μm
T3 construct: purchased Johnson and Johnson
T3 sequence (Q9NRA0 1-654): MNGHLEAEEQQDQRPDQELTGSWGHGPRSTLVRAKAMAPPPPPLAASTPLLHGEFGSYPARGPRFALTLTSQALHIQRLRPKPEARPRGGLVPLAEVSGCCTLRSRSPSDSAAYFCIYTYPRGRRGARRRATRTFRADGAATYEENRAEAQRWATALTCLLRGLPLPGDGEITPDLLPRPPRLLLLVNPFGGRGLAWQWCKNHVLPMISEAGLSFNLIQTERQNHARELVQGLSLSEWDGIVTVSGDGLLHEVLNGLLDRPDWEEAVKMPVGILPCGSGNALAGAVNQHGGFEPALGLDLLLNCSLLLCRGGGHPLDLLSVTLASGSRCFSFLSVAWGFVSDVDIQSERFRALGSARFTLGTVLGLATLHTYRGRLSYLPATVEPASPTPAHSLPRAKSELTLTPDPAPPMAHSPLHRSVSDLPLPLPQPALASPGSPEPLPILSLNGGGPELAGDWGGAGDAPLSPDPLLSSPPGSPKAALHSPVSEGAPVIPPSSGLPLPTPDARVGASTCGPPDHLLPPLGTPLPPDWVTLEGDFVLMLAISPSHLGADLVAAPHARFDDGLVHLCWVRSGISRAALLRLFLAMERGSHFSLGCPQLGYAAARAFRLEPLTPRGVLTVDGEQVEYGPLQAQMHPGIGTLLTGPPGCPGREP
Method: as §1, §2, §3, §4, §5, §6, §7, §8, §9, §10, §11, §12, §13, §14, §15, §16, §17, §18, §19

[4] = intact Jurkat cells, read-out: Des 1 IC50

T1 sequence (Q9NYA1 whole entry): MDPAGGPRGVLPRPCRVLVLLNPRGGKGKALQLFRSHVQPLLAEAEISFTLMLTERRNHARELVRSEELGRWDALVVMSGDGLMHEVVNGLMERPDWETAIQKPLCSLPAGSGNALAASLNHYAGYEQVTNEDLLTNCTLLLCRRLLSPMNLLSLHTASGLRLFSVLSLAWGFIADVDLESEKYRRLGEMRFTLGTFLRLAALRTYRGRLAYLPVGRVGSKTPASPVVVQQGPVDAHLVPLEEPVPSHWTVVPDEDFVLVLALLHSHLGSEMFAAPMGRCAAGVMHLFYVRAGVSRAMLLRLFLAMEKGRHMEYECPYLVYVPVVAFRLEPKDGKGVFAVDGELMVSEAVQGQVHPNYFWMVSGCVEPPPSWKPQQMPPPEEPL

| IC50 [3, 4] | activity at 10 µM [1] | IC50 ([2]; Homo sapiens, PC-3) | remaining activity at 10 µM (recombinant human SphK2) | Compound | other results |
| --- | --- | --- | --- | --- | --- |
|  |  |  |  | 3-(4-((5-(4-Chlorophenyl)-1,3,4-oxadiazol-2-yl)amino)phenyl)-1,2,4-oxadiazol-5(4H)-one [Example E-16] | SphK1% activity at 10 μm [1]: 100-150%; IC50 [2]: 0.1 to 1 µM; Des 1 IC50 ([3]; intact Jurkat cells): inactive; SphK2% actvity at 10 μm (recombinant human SphK2): 100-150% |
| 100 to 1000 nM |  |  |  | Oc1ccc(Nc2nnc(-c3ccc(Cl)cc3)o2)cc1 [Example E-1, 5-(4-Chlorophenyl)-N-(4-hydroxyphenyl)-1,3,4-oxadiazol-2-amine] |  |
| 1000 to 10000 nM |  |  |  | Oc1ccc(Nc2nnc(-c3ccc(Cl)cc3)s2)cc1 [Example E-2, 4-((5-(4-Chlorophenyl)-1,3,4-thiadiazol-2-yl)amino)phenol] |  |
| 1000 to 10000 nM |  |  |  | Oc1ccc(Nc2noc(-c3ccc(Cl)cc3)n2)cc1 [Example E-3, 4-((5-(4-Chlorophenyl)-1,2,4-oxadiazol-3-yl)amino)phenol] |  |
| 1000 to 10000 nM |  |  |  | Oc1ccc(Nc2nc(-c3ccc(Cl)cc3)no2)cc1 [Example E-4, 4-((3-(4-Chlorophenyl)-1,2,4-oxadiazol-5-yl)amino)phenol] |  |
|  | 20 to 50% | > 100 µM | 50 to 80% | O=C(Nc1ccc(O)cc1)c1csc(-c2ccc(Cl)cc2)n1 [Example E-6, 2-(4-Chlorophenyl)-N-(4-hydroxyphenyl)thiazole-4-carboxamide] |  |
| 1000 to 10000 nM |  |  |  | N/C(=N\O)c1ccc(Nc2nnc(-c3ccc(Cl)cc3)o2)cc1 [Example E-9, (Z)-4-((5-(4-Chlorophenyl)-1,3,4-oxadiazol-2-yl)amino)-N′-hydroxybenzimidamide] |  |
|  | 80 to 100% | > 100 µM | 50 to 80% | Cc1nc(-c2ccc(Nc3nnc(-c4ccc(Cl)cc4)o3)cc2)no1 [Example E-10, 5-(4-Chlorophenyl)-N-(4-(5-methyl-1,2,4-oxadiazol-3-yl)phenyl)-1,3,4-oxadiazol-2-amine] |  |
|  | 50 to 80% | > 100 µM | 20 to 50% | O=C(Nc1ccc(-c2nnc(-c3ccc(Cl)cc3)o2)cc1)[C@H]1NCC[C@@H]1O [Example E-12, (2S,3S)-2-((4-(5-(4-chlorophenyl)-1,3,4-oxadiazol-2-yl)phenyl)carbamoyl)-3-hydroxypyrrolidin-1-ium chloride] |  |
|  | 200 to 300% | > 100 µM | 80 to 100% | N=C(N)c1ccc(-c2nnc(-c3ccccc3)o2)cc1 [Example E-17, Amino(4-(5-phenyl-1,3,4-oxadiazol-2-yl)phenyl)methaniminium chloride] |  |
|  | 50 to 80% | > 100 µM | 80 to 100% | O=C(NCc1ccc(-c2nnc(-c3ccc(Cl)cc3)o2)cc1)[C@H]1NCC[C@@H]1O [Example E-18, (2S,3S)-2-((4-(5-(4-chlorophenyl)-1,3,4-oxadiazol-2-yl)benzyl)carbamoyl)-3-hydroxypyrrolidin-1-ium chloride] |  |
|  | 80 to 100% | > 100 µM | 20 to 50% | N=C(N)c1ccc(Nc2nnc(-c3ccccc3)o2)cc1 [Example E-20, Amino(4-((5-phenyl-1,3,4-oxadiazol-2-yl)amino)phenyl)methaniminium chloride] |  |
|  |  |  |  | Cl.N=C(N)c1ccc(Nc2nnc(-c3ccc(Cl)cc3)o2)cc1 [Example E-23, Amino(4-((5-(4-chlorophenyl)-1,3,4-oxadiazol-2-yl)amino)phenyl)methaniminium chloride] | Des 1 IC50 ([3]; intact Jurkat cells): inactive |
| 1000 to 10000 nM |  |  |  | Oc1ccc(Nc2nnc(-c3ccc(I)cc3)o2)cc1 [Example E-24, 4-((5-(4-Iodophenyl)-1,3,4-oxadiazol-2-yl)amino)phenol] |  |
|  |  |  |  | Oc1ccc(Nc2nnc(-c3ccc(C(F)(F)F)cc3)o2)cc1 [Example E-26, 4-((5-(4-(Trifluoromethyl)phenyl)-1,3,4-oxadiazol-2-yl)amino)phenol] | IC50 [3]: 100 to 1000 nM |
|  | 1 to 5% | > 100 µM | 20 to 50% | Clc1ccc(-c2nnc(NCc3ccncc3)o2)cc1 [Example E-30, 5-(4-Chlorophenyl)-N-(pyridin-4-ylmethyl)-1,3,4-oxadiazol-2-amine] |  |
| 100 to 1000 nM |  |  |  | Oc1ccc(Nc2nsc(-c3ccc(Cl)cc3)n2)cc1 [Example E-31, 4-((5-(4-chlorophenyl)-1,2,4-thiadiazol-3-yl)amino)phenol] |  |
| 100 to 1000 nM |  |  |  | Oc1ccc(Nc2nc(-c3ccc(Cl)cc3)ns2)cc1 [Example E-32, 4-((3-(4-chlorophenyl)-1,2,4-thiadiazol-5-yl)amino)phenol] |  |
